Measurements from ChEMBL document CHEMBL6087398, “Natural phenol carbamates: Selective BuChE/FAAH dual inhibitors show neuroprotection in an Alzheimer's disease mouse model” (Eur J Med Chem, 2025).
Activity calls are given as the source filed them. No cut-off for these calls is given here.

Legend:
[1] = target: T1, Fatty-acid amide hydrolase 1 (Homo sapiens, UniProt O00519); assay: Inhibition of human FAAH
T1 sequence (O00519 whole entry): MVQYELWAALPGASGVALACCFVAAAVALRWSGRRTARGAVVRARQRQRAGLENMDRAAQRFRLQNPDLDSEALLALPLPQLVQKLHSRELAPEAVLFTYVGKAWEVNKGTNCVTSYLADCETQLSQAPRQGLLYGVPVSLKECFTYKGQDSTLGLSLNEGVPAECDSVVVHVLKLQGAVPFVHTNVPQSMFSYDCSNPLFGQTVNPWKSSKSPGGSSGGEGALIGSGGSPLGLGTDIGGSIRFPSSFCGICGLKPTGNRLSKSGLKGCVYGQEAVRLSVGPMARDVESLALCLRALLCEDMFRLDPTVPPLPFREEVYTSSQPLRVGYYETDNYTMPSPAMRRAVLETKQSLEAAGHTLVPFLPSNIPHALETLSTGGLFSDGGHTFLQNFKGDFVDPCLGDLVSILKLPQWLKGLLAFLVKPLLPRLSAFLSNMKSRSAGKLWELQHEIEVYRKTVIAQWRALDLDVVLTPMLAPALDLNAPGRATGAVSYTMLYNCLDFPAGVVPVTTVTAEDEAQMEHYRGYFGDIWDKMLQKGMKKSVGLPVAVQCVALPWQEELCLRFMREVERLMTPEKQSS

PC-12 [2] = assay: Neuroprotective activity against H2O2 induced rat PC12 cells assessed as increase in cell viability at 50 uM measured after 24 hrs by MTT assay relative to control; assay type: functional
L02 [3] = assay: Cytotoxicity against human L02 cells assessed as reduction in cell viability at 6.25 to 50 uM incubated for 24 hrs by MTT assay relative to control; assay type: toxicity, cell-based; settings: l02, 24 h, dose 6.25-50 µM
[4] = Toxicity in amyloid beta (1 to 42 residues) induced ICR male mouse model assessed as effect on body weight at 10 mg/kg, po administered for 12 days and measured daily; assay type: organism-based; settings: in vivo, 288 h, time 12 day
BV-2 [5] = assay: Immunomodulatory activity in mouse BV-2 cells assessed as decrease in LPS induced IL-1 beta release at 10 uM incubated for 24 hrs by Western blotting analysis; assay type: functional, cell-based
[6] = target: Acetylcholinesterase (Electrophorus electricus) (UniProt O42275); assay: Inhibition of electric eel AChE using acetylthiocholine iodide as substrate preincubated with enzyme for 20 mins followed by substrate addition and measured after 20 mins by Ellman's method; set-up: concentration or dose not given beside the values; settings: time 40.0 min
Cholinesterase [7] = target: T2, Cholinesterase (Homo sapiens, UniProt P06276); assay: Binding affinity to human BuChE (unknown origin) assessed as equilibrium dissociation constant at 100 to 1000 nM incubated for 60 mins
BV-2 [8] = assay: Induction of microglial polarization to M2 phenotype in mouse BV-2 cells assessed as increase in Arg-1 activity incubated for 24 hrs by Western blotting analysis; assay type: functional, cell-based
[9] = Toxicity in amyloid beta (1 to 42 residues) induced ICR male mouse model assessed as hepatocyte fatty degeneration at 10 mg/kg, po administered for 12 days and measured on day 15 by H and E staining based immunohistochemistry analysis; assay type: organism-based; settings: in vivo, 288 h, time 12 day
[10] = Neurotoxicity against mouse BV-2 cells assessed as improvement in cell morphological changes at 20 uM by inverted microscopic analysis; assay type: toxicity, cell-based; settings: bv-2, 20 µM
Mus musculus [11] = assay: Antialzheimer activity against amyloid beta (1 to 42 residues) induced ICR male mouse model assessed as reduction in amyloid beta (1 to 42 residues) at 10 mg/kg, po administered for 12 days by ELISA relative to control; assay type: functional; set-up: scale not given: the % may be the effect or the level left; settings: time 12 day
PC-12 [12] = assay: Neuroprotective activity against H2O2 induced rat PC12 cells assessed as cell viability measured after 24 hrs by MTT assay; assay type: functional, cell-based; settings: dose 6.25-50 µM
BV-2 [13] = assay: Induction of microglial polarization to M2 phenotype in mouse BV-2 cells assessed as increase in CD206 expression incubated for 24 hrs by Western blotting analysis; assay type: functional, cell-based; settings: dose 0-10 µM
[14] = target: T1, Fatty-acid amide hydrolase 1; assay: Inhibition of human FAAH using arachidonoyl amide as substrate incubated for 30 mins by fluorescence-based cayman assay
[15] = target: Acetylcholinesterase (Homo sapiens) (UniProt P22303); assay: Inhibition of recombinant human AChE using acetylthiocholine iodide as substrate incubated for 5 mins relative to control
L02 [16] = assay: Cytotoxicity against human L02 cells assessed as reduction in cell viability at 12.5 uM incubated for 24 hrs by MTT assay; assay type: toxicity, cell-based; settings: l02, 24 h
[17] = Toxicity in amyloid beta (1 to 42 residues) induced ICR male mouse model assessed as pericentral necrosis at 10 mg/kg, po administered for 12 days and measured on day 15 by H and E staining based immunohistochemistry analysis; assay type: organism-based; settings: in vivo, 288 h, time 12 day
Cholinesterase [18] = target: T2, Cholinesterase; assay: Inhibition of human BuChE using butyrylthiocholine iodide as substrate incubated for 5 mins
Cholinesterase [19] = target: T2, Cholinesterase; assay: Binding affinity to human BuChE (unknown origin) assessed as overall carbamolyation rate at 100 to 1000 nM incubated for 60 mins
Mus musculus [20] = assay: Antialzheimer activity against amyloid beta (1 to 42 residues) induced ICR male mouse model assessed as prevention in cognitive dysfunction at 10 mg/kg, po administered for 12 days by Morris water maze test; assay type: functional, organism-based; settings: time 12.0 day
in vitro = settings: PAMPA, pH 7.4
Description: Permeability of the compound in PBS at pH 7.4 incubated for 18 hrs by PAMPA-BBB assay

BV-2 [21] = assay: Induction of microglial polarization to M2 phenotype in mouse BV-2 cells assessed as increase in Arg-1 expression incubated for 24 hrs by Western blotting analysis; assay type: functional, cell-based; settings: dose 0-10 µM
Cholinesterase [22] = target: Cholinesterase (Equus caballus, UniProt P81908); assay: Inhibition of equine BuChE using butyrylthiocholine iodide as substrate preincubated with enzyme for 20 mins followed by substrate addition and measured after 20 mins by Ellman's method
[23] = Neurotoxicity against mouse BV-2 cells assessed as reduction in cell viability at 25 to 50 uM incubated for 24 hrs by MTT assay; assay type: toxicity, cell-based; settings: bv-2, 24 h, dose 25-50 µM
Cholinesterase [24] = target: T2, Cholinesterase; assay: Binding affinity to human BuChE (unknown origin) assessed as decarbamolyation rate at 100 to 1000 nM incubated for 60 mins; settings: dose 100-1000 nM
BV-2 [25] = assay: Induction of microglial polarization to M2 phenotype in mouse BV-2 cells assessed as reduction in iNOS activity incubated for 24 hrs by Western blotting analysis; assay type: functional, cell-based
Cholinesterase [26] = target: T2, Cholinesterase; assay: Binding affinity to human BuChE (unknown origin) assessed as carbamolyation rate at 100 to 1000 nM incubated for 60 mins; settings: dose 100-1000 nM
BV-2 [27] = assay: Immunomodulatory activity in mouse BV-2 cells assessed as decrease in LPS induced IL-1 beta release incubated for 24 hrs by Western blotting analysis; assay type: functional, cell-based; settings: dose 0-10 µM
Mus musculus [28] = assay: Antialzheimer activity against amyloid beta (1 to 42 residues) induced ICR male mouse model assessed as increase in neuron density in hippocampal CA1 region at 10 mg/kg, po administered for 12 days and measured on day 15 by H and E staining based analysis; assay type: functional, organism-based; settings: time 12.0 day
BV-2 [29] = assay: Immunomodulatory activity in mouse BV-2 cells assessed as decrease in LPS induced iNOS expression at 10 uM incubated for 24 hrs by Western blotting analysis; assay type: functional, cell-based

T2 sequence (P06276 whole entry): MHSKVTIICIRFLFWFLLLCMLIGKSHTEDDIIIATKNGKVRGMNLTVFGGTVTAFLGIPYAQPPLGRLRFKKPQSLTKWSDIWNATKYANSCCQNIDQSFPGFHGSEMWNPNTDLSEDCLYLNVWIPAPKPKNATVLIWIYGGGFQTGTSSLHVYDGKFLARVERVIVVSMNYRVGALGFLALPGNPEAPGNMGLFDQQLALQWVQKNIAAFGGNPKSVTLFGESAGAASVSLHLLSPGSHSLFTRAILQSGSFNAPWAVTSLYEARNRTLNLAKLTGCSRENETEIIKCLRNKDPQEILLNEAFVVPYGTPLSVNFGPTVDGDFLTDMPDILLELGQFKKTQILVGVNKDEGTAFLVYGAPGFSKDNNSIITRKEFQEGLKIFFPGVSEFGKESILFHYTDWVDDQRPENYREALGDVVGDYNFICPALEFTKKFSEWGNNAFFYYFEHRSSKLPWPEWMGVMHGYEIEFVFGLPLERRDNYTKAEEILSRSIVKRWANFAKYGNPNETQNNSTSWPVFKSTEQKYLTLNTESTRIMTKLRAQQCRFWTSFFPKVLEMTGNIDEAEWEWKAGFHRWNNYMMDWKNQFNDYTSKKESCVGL
Sequence of Cholinesterase (Equus caballus, UniProt P81908) (P81908 whole entry): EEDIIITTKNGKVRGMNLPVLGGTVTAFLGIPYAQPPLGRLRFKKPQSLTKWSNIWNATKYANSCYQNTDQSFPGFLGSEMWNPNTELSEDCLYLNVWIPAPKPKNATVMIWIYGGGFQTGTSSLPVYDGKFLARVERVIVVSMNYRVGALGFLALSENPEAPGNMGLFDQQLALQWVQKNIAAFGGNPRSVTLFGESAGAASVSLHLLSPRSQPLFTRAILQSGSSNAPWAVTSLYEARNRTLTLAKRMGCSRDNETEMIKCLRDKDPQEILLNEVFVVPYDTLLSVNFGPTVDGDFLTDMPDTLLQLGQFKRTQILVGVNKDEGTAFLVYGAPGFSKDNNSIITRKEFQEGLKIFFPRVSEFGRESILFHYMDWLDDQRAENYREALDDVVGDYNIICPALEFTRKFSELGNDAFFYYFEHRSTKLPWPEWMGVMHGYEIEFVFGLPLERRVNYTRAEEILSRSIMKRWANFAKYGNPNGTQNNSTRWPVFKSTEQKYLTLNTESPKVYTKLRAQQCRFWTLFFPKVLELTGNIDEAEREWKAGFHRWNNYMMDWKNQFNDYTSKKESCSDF
Sequence of Acetylcholinesterase (Homo sapiens) (P22303 whole entry): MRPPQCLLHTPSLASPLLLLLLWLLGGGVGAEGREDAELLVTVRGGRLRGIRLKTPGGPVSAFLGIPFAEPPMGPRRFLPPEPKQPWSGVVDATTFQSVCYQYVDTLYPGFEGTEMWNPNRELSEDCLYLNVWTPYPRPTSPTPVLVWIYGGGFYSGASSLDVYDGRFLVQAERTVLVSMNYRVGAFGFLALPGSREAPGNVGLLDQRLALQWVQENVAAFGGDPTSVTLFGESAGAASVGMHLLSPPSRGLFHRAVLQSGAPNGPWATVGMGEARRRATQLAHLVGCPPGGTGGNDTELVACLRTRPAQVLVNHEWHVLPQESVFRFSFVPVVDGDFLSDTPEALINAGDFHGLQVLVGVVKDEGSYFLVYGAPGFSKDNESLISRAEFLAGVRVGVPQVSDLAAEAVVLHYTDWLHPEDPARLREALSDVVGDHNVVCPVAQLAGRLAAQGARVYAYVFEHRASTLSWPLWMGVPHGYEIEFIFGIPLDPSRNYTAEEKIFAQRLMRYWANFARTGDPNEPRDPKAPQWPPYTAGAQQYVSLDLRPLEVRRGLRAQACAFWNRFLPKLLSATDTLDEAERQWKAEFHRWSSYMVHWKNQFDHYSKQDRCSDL
Sequence of Acetylcholinesterase (Electrophorus electricus) (O42275 24-633 limits assumed): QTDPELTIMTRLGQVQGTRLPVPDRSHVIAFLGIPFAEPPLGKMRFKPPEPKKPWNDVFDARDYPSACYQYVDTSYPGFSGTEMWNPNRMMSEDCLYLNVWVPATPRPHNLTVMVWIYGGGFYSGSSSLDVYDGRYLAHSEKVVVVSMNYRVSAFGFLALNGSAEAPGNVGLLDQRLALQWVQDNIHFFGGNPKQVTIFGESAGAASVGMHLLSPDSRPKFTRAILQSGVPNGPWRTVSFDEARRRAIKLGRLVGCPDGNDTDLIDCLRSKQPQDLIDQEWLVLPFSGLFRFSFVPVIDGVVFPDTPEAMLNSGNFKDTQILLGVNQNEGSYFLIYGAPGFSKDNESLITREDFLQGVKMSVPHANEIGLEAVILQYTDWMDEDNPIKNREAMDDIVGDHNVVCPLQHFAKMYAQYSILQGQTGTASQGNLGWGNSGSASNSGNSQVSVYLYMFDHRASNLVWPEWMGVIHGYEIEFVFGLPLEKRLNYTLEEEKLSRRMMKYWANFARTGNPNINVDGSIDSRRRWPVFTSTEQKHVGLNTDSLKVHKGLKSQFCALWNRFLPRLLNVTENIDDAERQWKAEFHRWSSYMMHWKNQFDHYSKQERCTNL

SMILES: CN(C(=O)n1cnc(-c2ccc[n+]([O-])c2)c1)C1CCCCC1
- IC50 [1]: 7500 nM

SMILES: COc1ccc(C(C)=O)c(OC(=O)N(C)Cc2ccc(F)cc2)c1
- Activity (PC-12 [2]): 43%
- Activity (L02 [3]): 88.6%
- Activity [4]: Non-toxic
- Activity (BV-2 [5]): Active
- inhibition [6]: 53%
- Kd (Cholinesterase [7]): 2110 nM
- Activity (BV-2 [8]): Active
- Activity [9]: Non-toxic
- Activity [10]: Non-toxic
- Activity (Mus musculus [11]): 8.8%
- Activity (PC-12 [12]): Dose-dependent-effect
- Activity (BV-2 [13]): Dose-dependent-effect
- IC50 [14]: 400 nM
- inhibition [15]: 10.4%
- Activity (L02 [16]): Non-toxic
- Activity [17]: Non-toxic
- IC50 (Cholinesterase [18]): 81 nM
- Ki (Cholinesterase [19]): 2.8 10^-3/uM/min
- Activity (Mus musculus [20]): Active
- Papp at 18 h (in vitro): 16.4 ×10⁻⁶ cm/s
- Activity (BV-2 [21]): Dose-dependent-effect
- IC50 (Cholinesterase [22]): 12 nM
- Activity [23]: Non-toxic
- K (Cholinesterase [24]): 2.83 min⁻¹
- Activity (BV-2 [25]): Active
- K (Cholinesterase [26]): 2.27 min⁻¹
- Activity (BV-2 [27]): Dose-dependent-effect
- Activity (Mus musculus [28]): Active
- Activity (BV-2 [29]): Active
